Test: Human HepG2 cell viability assay in 384 well format
Type: toxicity, cell-based
Parameters: dose 125 nL, time 70.5 hour; concentration not given beside the values
Details: HepG2 cells, read-out: Inhibition

Row | SMILES | cytotoxicity at 70.5 h [%]
1 | Cc1ccc(S(=O)(=O)Nc2c(C)nn(C)c2C)cc1C | -5.46
2 | O=C(CNC(=O)c1ccccc1F)NCc1ccccn1 | -7.71
3 | CCOCCN1CCN(CCc2ccc3c(c2)CCO3)CC1 | 12.7
4 | NC(=O)CNC(c1ccccc1)c1ccccc1 | 17.2
5 | N#CC1(C(=O)N2CCOC(c3ccc(F)cc3)C2)CCCCC1 (stereo unspecified) | -9.88
6 | CN(C)S(=O)(=O)NC1CC(=O)N(c2ccccc2Cl)C1 (stereo unspecified) | -17.3
7 | COCC(=O)Nc1nnc2n(Cc3cccc(OC)c3)[nH]c(C)c1-2 | -5.86
8 | CC(C)c1nnc2n1CCN(C(C(N)=O)c1ccc(F)cc1)C2 (stereo unspecified) | -21.3
9 | CC(C)(C)CNC(=O)c1ccc(C(=O)O)cc1 | -5.94
10 | O=C(NS(=O)(=O)c1cccnc1)C1CC(c2ccccc2)=NO1 (stereo unspecified) | -4.92
11 | CCOC(C)C(=O)Nc1ccnn1-c1ccccc1C (stereo unspecified) | 7.99
12 | O=C(Nc1cnn(CC(F)F)c1)c1cccc(-n2cnnn2)c1 | -1.49
13 | OCC(CO)Nc1nc(C(F)F)nc2ccccc12 | -3.24
14 | Cc1[nH]nc2ncc(C(=O)N3CCCC3c3noc(C(C)C)n3)cc12 (stereo unspecified) | -19.5
15 | O=C(O)c1ccc(S(=O)(=O)Nc2cnn(CC(F)(F)F)c2)cc1 | 3.28
16 | Cc1ccc(OCCCC(=O)Nc2nonc2C)cc1C | 12
17 | COc1ccc(C2(NC(=O)c3ccc(=O)n(C)n3)CCCC2)cc1 | -12.4
18 | CCCn1nc(C(=O)NC2(c3ccc(Cl)cc3)CCCC2)ccc1=O | -7.76
19 | N#Cc1cccc(S(=O)(=O)NC(=O)C2CC(c3ccccc3)=NO2)c1 (stereo unspecified) | -18.7
20 | Cc1nc(CNc2ccccc2CCC(F)(F)F)cs1 | -9.96
21 | O=C(c1cc(C2CCCC2)no1)N1CC(O)C1 | -3.97
22 | O=C(CNC(=O)C1(c2ccc(F)cc2F)CCC1)Nc1ccccn1 | -3.32

Row | SMILES | cytotoxicity at 70.5 h [%]
23 | O=C(CNC(=O)C1(c2ccc(F)cc2F)CCC1)Nc1cccnc1 | 31.2
24 | CC(C)n1nnnc1-c1ccc(NC(=O)CC(F)(F)F)cc1F | -1.35
25 | COCc1ccccc1NCc1csc(NC(C)=O)n1 | -7.46
26 | Cc1cc(C)n(CCCNC(=O)C2CCCO2)n1 (stereo unspecified) | 2.61
27 | O=C1CN(Cc2occc2C(=O)NCCc2ccc(F)cc2)CCN1 | 2.4
28 | CC(C)n1nnnc1-c1ccc(NC(=O)N(C)CCN(C)C)cc1F | -7.88
29 | Cn1cc(C(O)CNC(=O)c2sccc2OC(F)F)cn1 (stereo unspecified) | -4.33
30 | Cc1cccc(OCC(=O)NS(=O)(=O)Cc2ccccc2)c1 | -5.52
31 | O=C(COc1ccccc1)NS(=O)(=O)Cc1ccccc1 | -1.17
32 | CC(=O)c1cccc(OCCCC(=O)N(C)C2CCN(C)CC2)c1 | -7.34
33 | Cc1nc(C)n(CC2CCCN2Cc2ccc(F)cc2C#N)n1 (stereo unspecified) | 5.18
34 | O=C(Nc1ccc(N2CCCCC2)cn1)C1CCCN1C(=O)C1CC1 (stereo unspecified) | -4.38
35 | CC(C)CN(C(=O)COc1ccc(C(N)=O)cc1)C1CCN(C)CC1 | -4.39
36 | CCC(CC)(CNC(=O)OC(C)(C)C)NC(=O)c1cnccn1 | 0.78
37 | Cc1csc(-c2ccc(NC(=O)N3CCOCC3)cc2)n1 | -0.264
38 | OCCN1CCN(CC2(O)CCCCC2)CC1 | 0.0783
39 | Cc1ccccc1C(O)CNC(=O)Cc1ccc(F)cc1 (stereo unspecified) | -2.44
40 | Cc1cc(OC(F)F)c(C(=O)NCC(O)c2cccc(F)c2)s1 (stereo unspecified) | 6.81
41 | O=C1CC(C(=O)Nc2nnc(-c3cccs3)[nH]2)c2ccccc2N1 (stereo unspecified) | -2.83
42 | CC(C)(CNC(=O)C1(c2ccccc2)CCOCC1)C(=O)O | -1.55
43 | Cc1cccc(N2CCC(NC(C)c3cccs3)CC2)n1 (stereo unspecified) | 10.3
44 | O=C(O)CCNC(=O)C1(c2cccc(Br)c2)CCOCC1 | -0.861

Row | SMILES | cytotoxicity at 70.5 h [%]
45 | OCCN1CCN(Cc2cc(Cl)cc3cccnc23)CC1 | 4.47
46 | Cc1noc(CN(Cc2ccco2)Cc2cccc3c2OCO3)n1 | -1.63
47 | Cc1noc(CN(Cc2ccc3c(c2)OCCO3)Cc2ccco2)n1 | -3.69
48 | Cc1ncc2c(n1)CN(CC1CCCCO1)CC2 (stereo unspecified) | 5.6
49 | Clc1cc(CN2CCCN3CCCC3C2)c2ncccc2c1 (stereo unspecified) | -2.91
50 | CN1CCOC(CNCc2nc(-c3ccoc3)no2)C1 (stereo unspecified) | -6.11
51 | Cc1cc(C2CCCN(C(=O)COc3cccc(F)c3)C2)n[nH]1 (stereo unspecified) | -5.26
52 | CCOC(=O)N(C)C1CCN(Cc2csc(C)n2)CC1 | 2.22
53 | CCN(C(=O)CN1CCCC1c1c(C)nn(C)c1OC)C1CC1 (stereo unspecified) | -6.09
54 | CCc1nccn1CC1CCCN1S(=O)(=O)N1CCCOCC1 (stereo unspecified) | 23.7
55 | CCCn1nnnc1COC(=O)C1Cc2cc(Cl)ccc2O1 (stereo unspecified) | -9.18
56 | Cc1ccccc1C(=O)NCC(=O)NCc1ccccn1 | 15.5
57 | COc1cccc(CN(C)Cc2c(C)noc2C)c1OC | -3.33
58 | O=C1CN(C(=O)c2cc3ccc(Br)cc3[nH]2)CCN1 | -9.95
59 | COc1cccc(CCC(=O)Nc2ccn(C)n2)c1OC | -10
60 | CCOc1ccc2cc(C(=O)NCCC(=O)N(C)C)[nH]c2c1 | -7.75
61 | Cc1cc(CNCC2CNc3ccnn3C2)no1 (stereo unspecified) | 19.3
62 | COC1CCN(c2ccc(F)cc2CN(C)C(C)C(N)=O)CC1 (stereo unspecified) | -1.51
63 | Cc1ccc(-c2noc(Cn3nc(C(N)=O)ccc3=O)n2)cc1 | -8.12
64 | CN(Cc1ccc(C#N)cc1)CC1CCS(=O)(=O)C1 (stereo unspecified) | -8.96
65 | COc1c(C2CCCN2CC(=O)N(C)c2nccs2)c(C)nn1C (stereo unspecified) | 0.589
66 | COc1cc(C)c(S(=O)(=O)CC(=O)N(C)C(C)C)cc1OC | -5.84

Row | SMILES | cytotoxicity at 70.5 h [%]
67 | O=C(CNC(=O)c1ccccc1I)NCc1ccccc1F | -10.2
68 | CCn1ccnc1CNCc1ccc(C)cc1OC(C)(C)C | -11
69 | Cc1nc(NC(=O)C(C)N(C)Cc2cccc(C#N)c2)sc1C (stereo unspecified) | 15.8
70 | Cc1ccc(CNC(=O)NCc2nccn2C)c(OC(C)(C)C)c1 | -2.56
71 | CCCn1nnnc1COC(=O)C1COc2ccccc2O1 (stereo unspecified) | -6.23
72 | CCSCc1cccc(NCc2cccnc2)c1 | -14.7
73 | COc1cccc(CN(C)C(C)C(=O)Nc2nc(C)c(C)s2)c1 (stereo unspecified) | -11.4
74 | Cc1cnn(CC2CCN(CC(O)Cn3cccn3)CC2)c1 (stereo unspecified) | -6.24
75 | CC(=O)N1CCC(NC(=O)c2ccccc2-n2cnnn2)CC1 | -3.54
76 | Cn1ccc(C(=O)N2CCCC2c2ccc3c(c2)OCCO3)cc1=O (stereo unspecified) | -2.74
77 | O=C(NC1CC1)c1cc(Cl)ccc1-n1cnnn1 | -6.19
78 | COc1cccc(C2CCCN2C(=O)c2ccc(=O)n(C)c2)c1 (stereo unspecified) | -3.72
79 | COC(=O)CCNC(=O)c1c[nH]cc1-c1ccccc1OC | -3.42
80 | CCC(C)NC(=O)CCNC(=O)c1c[nH]cc1-c1cccc(OC)c1 (stereo unspecified) | 2.46
81 | N#Cc1cc(C#N)c(SCCC(=O)Nc2ccc(F)cc2)nc1N | -12.6
82 | CCCNC(=O)NCc1nc(C)c(C)o1 | 7.79
83 | CN(C)c1ccc(CNC2(c3ccc(F)cc3)CCOCC2)cc1F | -7.63
84 | NC(=O)C1CCN(C(=O)CSC2CCCc3ccccc32)CC1 (stereo unspecified) | 1.96
85 | Cc1nc(CNC(=O)NCC(F)(F)F)oc1C | 3.56
86 | COc1cc(Br)c(CNC2CCCNC2=O)cc1OC (stereo unspecified) | -0.0651
